Converted amounts (≈) assume the structure as drawn.
Tests used:
PC-3 = experiment: Cytotoxicity against human PC-3 cells assessed as cell growth inhibition incubated for 2 days by MTT assay; type: functional, cell-based; settings: PC-3, 48 h
HepG2 [1] = experiment: Cytotoxicity against human HepG2 cells assessed as cell growth inhibition incubated for 2 days by MTT assay; type: functional, cell-based; settings: HepG2, 48 h
MCF7 [2] = experiment: Cytotoxicity against human MCF7 cells assessed as cell growth inhibition incubated for 2 days by MTT assay; type: functional, cell-based; settings: MCF7, 48 h
[3] = Inhibition of CaCC (unknown origin) current potentiation; design: species or system Homo sapiens
NCI-H1299 = experiment: Cytotoxicity against human NCI-H1299 cells assessed as cell growth inhibition incubated for 48 hrs by SRB assay; type: functional, cell-based; settings: NCI-H1299, 48 h
Staphylococcus aureus [4] = experiment: Antibacterial activity against Staphylococcus aureus NCIM 2010 assessed as bacterial growth inhibition incubated for 8 hrs by absorbance based assay; type: functional
Bacillus subtilis [5] = experiment: Antibacterial activity against Bacillus subtilis NCIM 2079 assessed as bacterial growth inhibition incubated for 8 hrs by absorbance based assay; type: functional
Escherichia coli = experiment: Antibacterial activity against Escherichia coli NCIM 2688 assessed as bacterial growth inhibition incubated for 8 hrs by absorbance based assay; type: functional
Pseudomonas aeruginosa = experiment: Antibacterial activity against Pseudomonas aeruginosa NCIM 2036 assessed as bacterial growth inhibition incubated for 8 hrs by absorbance based assay; type: functional
Staphylococcus aureus [6] = experiment: Antibacterial activity against Staphylococcus aureus NCIM 2010 assessed as reduction in bacterial growth incubated for 8 hrs by absorbance based assay; type: functional, organism-based; settings: NCIM 2010, 8 h
Bacillus subtilis [7] = experiment: Antibacterial activity against Bacillus subtilis NCIM 2079 assessed as reduction in bacterial growth incubated for 8 hrs by absorbance based assay; type: functional, organism-based; settings: NCIM 2079, 8 h
HepG2 [8] = experiment: Cytotoxicity against human HepG2 cells assessed as cell growth inhibition incubated for 48 hrs by MTT assay; type: functional, cell-based; settings: Homo sapiens, HepG2, 48 h
MCF7 [9] = experiment: Cytotoxicity against human MCF7 cells assessed as cell growth inhibition incubated for 48 hrs by MTT assay; type: functional, cell-based; settings: MCF7, 48 h
[10] = Antiproliferative activity against human U-87 MG cells assessed as cell growth inhibition by MTT assay; type: functional, cell-based, U-87MG ATCC
Epidermophyton floccosum = experiment: Antifungal activity against Epidermophyton floccosum 6999 assessed as fungal growth inhibition by spectrophotometry; type: functional
Trichophyton tonsurans [11] = experiment: Antifungal activity against Trichophyton tonsurans 700 assessed as fungal growth inhibition by spectrophotometry; type: functional
Trichophyton tonsurans [12] = experiment: Antifungal activity against Trichophyton tonsurans 2822 assessed as fungal growth inhibition by spectrophotometry; type: functional
Trichophyton rubrum = experiment: Antifungal activity against Trichophyton rubrum 6753 assessed as fungal growth inhibition by spectrophotometry; type: functional
[13] = tested on: Trichophyton mentagrophytes; experiment: Antifungal activity against Trichophyton mentagrophytes 5432 assessed as fungal growth inhibition by spectrophotometry; type: functional
NCI-H460 = experiment: Antiproliferative activity against human NCI-H460 cells assessed as cell growth inhibition by MTT assay
MKN-45 = experiment: Antiproliferative activity against human MKN-45 cells assessed as cell growth inhibition by MTT assay
SMMC-7721 = experiment: Antiproliferative activity against human SMMC-7721 cells assessed as cell growth inhibition by MTT assay
A549 = experiment: cells; settings: Homo sapiens
Description: Antiproliferative activity against human A549 cells assessed as cell growth inhibition by MTT assay

HT-29 = experiment: cells; settings: Homo sapiens
Description: Antiproliferative activity against human HT-29 cells assessed as cell growth inhibition by MTT assay

[14] = tested on: Mycobacterium tuberculosis; experiment: Antimycobacterial activity against Mycobacterium tuberculosis H37Ra incubated for 8 to 12 days by XTT reduction menadione assay; type: functional; settings: time 8-12 day
Leishmania amazonensis = experiment: Anti-promastigote activity against Leishmania amazonensis (IFLA/BR/67/PH8) assessed as promastigote growth inhibition incubated for 72 hrs by microscopic analysis; type: functional, organism-based; settings: Leishmania amazonensis, IFLA/BR/67/PH8, 72 h
Staphylococcus coagulans = experiment: Antimicrobial activity against Staphylococcus coagulans assessed as microbial growth inhibition incubated for 24 hrs by disc diffusion assay; type: functional
Heyndrickxia coagulans = experiment: Antibacterial activity against Bacillus coagulans assessed as bacterial growth inhibition; type: functional
Enterococcus faecalis = experiment: Antibacterial activity against Enterococcus faecalis assessed as bacterial growth inhibition; type: functional

N#Cc1c(NC(=O)/C=C/c2ccc(O)cc2)sc2c1CCCC2
IC50 (PC-3): 5.2 µM | IC50 (HepG2 [1]): 7.9 µM | IC50 (MCF7 [2]): 7.5 µM

CC(C)(C)C1CCc2c(sc(NC3=NCC(CBr)S3)c2C(=O)O)C1 (stereo unspecified)
IC50 [3]: 24.8 µM

N#Cc1c(NC(=O)CN/N=C/c2cccc([N+](=O)[O-])c2)sc2c1CCCC2
IC50 (NCI-H1299): 18.5 µM

CC1(C)S[C@@H]2[C@H](NC(=O)[C@H](N)c3ccccc3)C(=O)N2[C@H]1C(=O)O [AMPICILLIN]
MIC (Staphylococcus aureus [4]): 0.28 µg/mL (≈ 0.801 µM) | MIC (Bacillus subtilis [5]): 0.28 µg/mL (≈ 0.801 µM) | MIC (Escherichia coli): 0.88 µg/mL (≈ 2.52 µM) | MIC (Pseudomonas aeruginosa): > 10 µg/mL | EC50 (Staphylococcus aureus [6]): 0.15 µM | EC50 (Bacillus subtilis [7]): 0.15 µM

CC(=O)Nc1sc(C(C)=O)c(Nc2ccc(C(C)=O)cc2)c1C#N
IC50 (HepG2 [8]): 66.2 µM | IC50 (MCF7 [9]): 64.6 µM

CCOC(=O)c1c(NC(=O)/C=C/c2ccc(O)cc2)sc2c1CCCC2
IC50 (PC-3): 6.29 µM | IC50 (HepG2 [1]): 8.3 µM | IC50 (MCF7 [2]): 8.27 µM

COc1cc2c(Oc3ccc(NC(=O)C4(C(=O)Nc5ccc(F)cc5)CC4)cc3F)ccnc2cc1OCCCN1CCOCC1 [FORETINIB]
IC50 [10]: 0.9 µM

N#Cc1ccsc1/N=C/c1c[nH]c2cccc([N+](=O)[O-])c12
MIC (Epidermophyton floccosum): 1020 µg/mL (≈ 3460 µM) | MIC (Trichophyton tonsurans [11]): 128 µg/mL (≈ 432 µM) | MIC (Trichophyton tonsurans [12]): 512 µg/mL (≈ 1730 µM) | MIC (Trichophyton rubrum): 64 µg/mL (≈ 216 µM) | MIC [13]: 512 µg/mL (≈ 1730 µM)

N#Cc1c(NC(=O)CNc2onc3ncccc23)sc2c1CCCC2
IC50 (NCI-H1299): 18.4 µM

CCOC(=O)c1c(NC(=O)CC#N)sc(C(=O)Nc2ccccc2)c1-c1ccccc1
IC50 [10]: 0.62 µM | IC50 (NCI-H460): 0.49 µM | IC50 (MKN-45): 0.59 µM | IC50 (SMMC-7721): 0.53 µM | IC50 (A549): 0.32 µM | IC50 (HT-29): 0.63 µM

COC(=O)c1c(NC(=O)N[C@@H](C(=O)N[C@@H]2C(=O)N3[C@@H]2SC(C)(C)[C@@H]3C(=O)O)c2ccccc2)sc2c1CCCCCC2
MIC (Staphylococcus aureus [4]): 0.28 µg/mL (≈ 0.455 µM) | MIC (Bacillus subtilis [5]): 2.3 µg/mL (≈ 3.74 µM) | MIC (Escherichia coli): > 10 µg/mL | MIC (Pseudomonas aeruginosa): > 10 µg/mL | MIC [14]: 23.3 µg/mL (≈ 37.8 µM) | EC50 (Staphylococcus aureus [6]): 0.15 µM | EC50 (Bacillus subtilis [7]): 0.28 µM

COc1ccc2nc3cc(Cl)ccc3c(Nc3sc4c(c3C#N)CCCCCC4)c2c1
EC50 (Leishmania amazonensis): 69 µM

CC1(C)S[C@@H]2[C@H](NC(=O)[C@H](N)c3ccc(O)cc3)C(=O)N2[C@H]1C(=O)O [AMOXICILLIN]
MIC (Staphylococcus aureus [4]): 0.29 µg/mL (≈ 0.794 µM) | MIC (Bacillus subtilis [5]): 0.32 µg/mL (≈ 0.876 µM) | MIC (Escherichia coli): 0.32 µg/mL (≈ 0.876 µM) | MIC (Pseudomonas aeruginosa): > 10 µg/mL | EC50 (Staphylococcus aureus [6]): 0.15 µM | EC50 (Bacillus subtilis [7]): 0.15 µM

COc1ccc(/C=N/NCC(=O)Nc2sc3c(c2C#N)CCCC3)cc1
IC50 (NCI-H1299): 18.5 µM

N#Cc1c(NC(=O)c2cc(O)c(O)c(O)c2)sc2c1CCCCC2
MIC (Staphylococcus coagulans): 0.43 µM (≈ 0.148 µg/mL) | MIC (Heyndrickxia coagulans): 0.15 µg/mL (≈ 0.436 µM) | MIC (Enterococcus faecalis): 0.25 µg/mL (≈ 0.726 µM)

COC(=O)c1c(NC(=O)Cn2cc(CNC34CC5CC(CC(C5)C3)C4)nn2)sc2c1CCC(C)C2 (stereo unspecified)
IC50 [3]: 5.4 µM

COC(=O)c1ccsc1NC(=O)N[C@@H](C(=O)N[C@@H]1C(=O)N2[C@@H]1SC(C)(C)[C@@H]2C(=O)O)c1ccc(O)cc1
MIC (Staphylococcus aureus [4]): 0.29 µg/mL (≈ 0.529 µM) | MIC (Bacillus subtilis [5]): 0.32 µg/mL (≈ 0.583 µM) | MIC (Escherichia coli): > 10 µg/mL | MIC (Pseudomonas aeruginosa): > 10 µg/mL | MIC [14]: > 50 µg/mL | EC50 (Staphylococcus aureus [6]): 0.15 µM | EC50 (Bacillus subtilis [7]): 0.15 µM

CO[C@H]1/C=C/O[C@@]2(C)Oc3c(C)c(O)c4c(O)c(c(/C=N/N5CCN(C)CC5)c(O)c4c3C2=O)NC(=O)/C(C)=C\C=C\[C@H](C)[C@H](O)[C@@H](C)[C@@H](O)[C@@H](C)[C@H](OC(C)=O)[C@@H]1C [RIFAMPIN]
MIC [14]: 0.042 µg/mL (≈ 0.051 µM)

COC(=O)c1ccsc1NC(=O)N[C@@H](C(=O)N[C@@H]1C(=O)N2C(C(=O)O)=C(C)CS[C@H]12)c1ccccc1
MIC (Staphylococcus aureus [4]): 0.75 µg/mL (≈ 1.41 µM) | MIC (Bacillus subtilis [5]): 3.14 µg/mL (≈ 5.92 µM) | MIC (Escherichia coli): > 10 µg/mL | MIC (Pseudomonas aeruginosa): > 10 µg/mL | MIC [14]: > 50 µg/mL | EC50 (Staphylococcus aureus [6]): 0.26 µM | EC50 (Bacillus subtilis [7]): 0.21 µM

N#Cc1c(N)sc(C(=O)Nc2ccccc2)c1-c1ccccc1
IC50 [10]: 8.93 µM | IC50 (NCI-H460): 9.62 µM | IC50 (MKN-45): 7.09 µM | IC50 (SMMC-7721): 5.09 µM | IC50 (A549): 8.28 µM | IC50 (HT-29): 8.39 µM

N#CCC(=O)Nc1sc(C(=O)Nc2ccc(Cl)cc2)c(-c2ccccc2)c1C#N
IC50 [10]: 0.86 µM | IC50 (NCI-H460): 1.04 µM | IC50 (MKN-45): 0.59 µM | IC50 (SMMC-7721): 0.39 µM | IC50 (A549): 1.4 µM | IC50 (HT-29): 0.86 µM

CC(=O)c1ccc(Nc2c(C(C)=O)sc(N)c2C#N)cc1
IC50 (HepG2 [8]): 88.5 µM | IC50 (MCF7 [9]): 91.5 µM

Cc1cc(C)c2c(NCC(=O)Nc3sc4c(c3C#N)CCCC4)n[nH]c2n1
IC50 (NCI-H1299): 13.7 µM

CC(=O)c1ccc(Nc2c(C(C)=O)sc(NC(=O)CC#N)c2C#N)cc1
IC50 (HepG2 [8]): 56.1 µM | IC50 (MCF7 [9]): 41.4 µM

CC(C)(C)C1CCc2c(sc(NC(=O)C3CCCO3)c2C(=O)O)C1 (stereo unspecified)
IC50 [3]: 1.7 µM
